Test results taken from patent publication US20180002312A1, “TETRA- AND PENTASUBSTITUTED BENZIMIDAZOLIUM COMPOUNDS USEFUL IN THE TREATMENT OF RESPIRATORY DISEASES” (Boehringer Ingelheim International GmbH, priority 2015, published 2018).
pIC50: −log10 of the molar value. Read-outs that look alike come from different tables or passages of the source.

What was measured:
[1] = Permeability in CALU-3 cells; format: in vitro ADME; conditions: human, CALU-3 monolayers, pH 7.4, 37° C., 10 μM compound; for Papp A→B at 90 min, 10 μM: apical-to-basal; for Papp B→A at 90 min, 10 μM: basal-to-apical
Protocol: Permeability in CALU-3 Cells:
Permeability measurements across polarized, confluent CALU-3 cell monolayers grown on permeable filter supports are used to provide information on the potential of a compound to pass the lung epithelium.
CALU-3 cells (1-2×10^5 cells/1 cm^2 area) are seeded on filter inserts (Costar transwell polycarbonate filters, 0.4 μm pore size) and cultured (for 10-12 days DMEM) until tight monolayers are formed. Compounds of interest are dissolved in appropriate solvent (DMSO, 10 mM stock solution). […] The transport solution (TL) is applied to the apical or basolateral donor side for measuring A-B or B-A permeability (3 filter replicates), respectively. The receiver side contains the same buffer as the donor side. After 30 min of accommodation, samples are collected at the start t0=0 min and at the end of the experiment tn=90 min from the donor and at 0, 30, 60, and 90 min also from the receiver chamber. Volume removed is […] by HTP-4 buffer. The compound concentration in the samples is measured by HPLC-MS/MS or scintillation counting. The permeability coefficient (Papp) and efflux ratio are calculated according to: Papp [cm/s]=(concentration receiver [nM]*volume receiver [mL]/time interval [sec])*(1/filter area)*(1/donor concentration [nM]).

[2] = biological target: T1, ENaC (Epithelial Sodium Channel) (Mus musculus, UniProt Q61180+Q9WU38+Q9WU39); assay: Ussing Chamber assay: inhibition of amiloride sensitive short circuit current in M-1 cells; format: cell-based
T1 construct: Mouse kidney M-1 cells were cultivated in DMEM; endogenous in cells; host or cells: mouse kidney M-1 cells (cortical collecting duct line), dexamethasone-treated, grown on transwell filters
T1 sequence (Q61180 1-699): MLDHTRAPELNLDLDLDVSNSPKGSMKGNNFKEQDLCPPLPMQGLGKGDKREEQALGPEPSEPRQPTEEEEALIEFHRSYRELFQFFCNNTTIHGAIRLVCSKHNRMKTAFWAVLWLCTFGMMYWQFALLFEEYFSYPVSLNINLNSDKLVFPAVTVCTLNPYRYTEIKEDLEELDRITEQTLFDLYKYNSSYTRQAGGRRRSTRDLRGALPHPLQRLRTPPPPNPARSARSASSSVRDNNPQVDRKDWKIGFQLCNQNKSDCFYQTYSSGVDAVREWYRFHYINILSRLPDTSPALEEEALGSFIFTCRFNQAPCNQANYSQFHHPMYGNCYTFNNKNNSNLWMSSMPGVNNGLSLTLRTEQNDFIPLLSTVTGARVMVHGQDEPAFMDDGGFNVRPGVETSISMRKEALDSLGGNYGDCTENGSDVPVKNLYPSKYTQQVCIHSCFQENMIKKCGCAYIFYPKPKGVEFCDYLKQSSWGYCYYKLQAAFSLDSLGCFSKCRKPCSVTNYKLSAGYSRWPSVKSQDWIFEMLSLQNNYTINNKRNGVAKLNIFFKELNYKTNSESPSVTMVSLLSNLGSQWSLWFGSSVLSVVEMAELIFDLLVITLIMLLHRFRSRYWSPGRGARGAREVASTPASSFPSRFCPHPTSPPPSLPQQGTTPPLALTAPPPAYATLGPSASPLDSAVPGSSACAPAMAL
T1 sequence (Q9WU38 1-638): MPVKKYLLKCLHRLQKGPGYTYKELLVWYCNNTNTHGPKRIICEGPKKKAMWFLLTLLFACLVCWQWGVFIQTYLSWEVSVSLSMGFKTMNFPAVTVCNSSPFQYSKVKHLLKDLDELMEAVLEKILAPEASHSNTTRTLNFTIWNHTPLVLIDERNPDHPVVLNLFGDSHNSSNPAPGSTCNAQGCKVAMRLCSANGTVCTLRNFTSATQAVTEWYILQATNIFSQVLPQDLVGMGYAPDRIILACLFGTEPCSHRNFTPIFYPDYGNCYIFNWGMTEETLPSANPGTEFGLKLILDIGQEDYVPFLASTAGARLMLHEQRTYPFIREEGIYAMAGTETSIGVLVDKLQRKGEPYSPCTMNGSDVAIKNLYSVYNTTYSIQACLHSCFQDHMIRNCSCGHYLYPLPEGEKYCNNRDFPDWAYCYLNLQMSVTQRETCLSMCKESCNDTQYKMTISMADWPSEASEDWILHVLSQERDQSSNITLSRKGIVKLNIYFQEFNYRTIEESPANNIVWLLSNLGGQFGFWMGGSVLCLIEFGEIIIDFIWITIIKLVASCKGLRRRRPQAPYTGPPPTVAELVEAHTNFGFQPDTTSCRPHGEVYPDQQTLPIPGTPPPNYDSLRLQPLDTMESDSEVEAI
T1 sequence (Q9WU39 1-655): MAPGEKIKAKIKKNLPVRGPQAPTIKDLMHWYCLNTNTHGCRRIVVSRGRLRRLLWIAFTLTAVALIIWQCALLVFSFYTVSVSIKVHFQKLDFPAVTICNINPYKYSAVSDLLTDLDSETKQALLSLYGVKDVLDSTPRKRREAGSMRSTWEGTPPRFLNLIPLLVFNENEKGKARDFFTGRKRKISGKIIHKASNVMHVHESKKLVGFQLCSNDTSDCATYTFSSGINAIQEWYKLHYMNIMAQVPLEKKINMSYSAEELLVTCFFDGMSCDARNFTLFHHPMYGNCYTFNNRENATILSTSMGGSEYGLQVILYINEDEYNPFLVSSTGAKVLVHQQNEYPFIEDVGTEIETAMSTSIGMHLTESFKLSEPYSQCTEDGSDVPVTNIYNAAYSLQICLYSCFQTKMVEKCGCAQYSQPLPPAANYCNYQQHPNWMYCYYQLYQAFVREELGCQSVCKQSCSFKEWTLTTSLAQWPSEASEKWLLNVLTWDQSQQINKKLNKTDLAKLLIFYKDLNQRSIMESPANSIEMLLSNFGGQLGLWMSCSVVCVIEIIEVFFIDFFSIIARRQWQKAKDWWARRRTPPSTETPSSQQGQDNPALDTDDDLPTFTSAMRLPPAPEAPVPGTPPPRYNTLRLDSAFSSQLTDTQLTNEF
Protocol: Ussing Chamber: Mouse kidney M-1 cells were cultivated in DMEM containing 5% FCS and 5 μM dexamethasone for 10 to 12 days on polyester transwell filters. Filters were inserted into a teflon-coated well-plate which fit into the ussing chamber system. Prior to measurement the medium of M-1 cells was replaced with Caco-2 transport buffer (Invitrogen, Germany). During measurements, the Ussing chamber temperature was kept at 37° C. Short circuit currents (I_sc) were measured in the voltage-clamp mode with the software package Lab View for data acquisition and analysis. The transepithelial electrical resistance (TEER) was determined by the application of voltage steps of ±5 mV every 5 sec. Compounds were administered at a final concentration of 3 μM or at increasing concentrations (1-3-10 μM) to the apical solution. At the end of each experiment the amiloride sensitive I_SC was measured by adding 3 μM amiloride to the apical compartment. Results are expressed as inhibition in percent of the amiloride effect or as IC50.

[3] = Ussing chamber, mouse kidney M-1 cells, short circuit current, apical administration, 37° C., read-out: IC50

CCn1c(CNC(=O)c2nc(Cl)c(N)nc2N)[n+](Cc2cccc(C(=O)N3CC[S+]([O-])CC3)c2)c2ccc(OCCO)cc21.O=C([O-])C(F)(F)F [Example 1.08]
Papp A→B at 90 min, 10 μM [1]: 0.1 ×10⁻⁶ cm/s
Papp B→A at 90 min, 10 μM [1]: 0.09 ×10⁻⁶ cm/s
pIC50 [2, 3]: 7.80

CCCCCCN1CCC(NC(=O)COc2ccc3c(c2)n(C2CCN(C(=O)NCC)CC2)c(CNC(=O)c2nc(Cl)c(N)nc2N)[n+]3CC)CC1 [Example 4.01]
pIC50 [2, 3]: 8.40

CC[n+]1c(CNC(=O)c2nc(Cl)c(N)nc2N)n(C[C@@H]2CCCO2)c2cc(OCC(=O)N3C[C@@H](O)[C@H](O)C3)ccc21 [Example 1.15]
pIC50 [2, 3]: 8.70

CCNC(=O)N1CCC(n2c(CNC(=O)c3nc(Cl)c(N)nc3N)[n+](CC)c3ccc(OCC(=O)O)cc32)CC1 [Example 5.01]
pIC50 [2, 3]: 7.74

CC[n+]1c(CNC(=O)c2nc(Cl)c(N)nc2N)n(CCOCCn2ccccc2=O)c2cc(OCP(C)(C)=O)ccc21.O=C([O-])C(F)(F)F [Example 1.03]
Papp A→B at 90 min, 10 μM [1]: 0.2 ×10⁻⁶ cm/s
Papp B→A at 90 min, 10 μM [1]: 0.07 ×10⁻⁶ cm/s
pIC50 [2, 3]: 7.31

CCNC(=O)N1CCC(n2c(CNC(=O)c3nc(Cl)c(N)nc3N)[n+](CC)c3ccc(OCC(=O)NC4CCN(CC)CC4)cc32)CC1 [Example 4.02]
pIC50 [2, 3]: 8.70

CC[n+]1c(CNC(=O)c2nc(Cl)c(N)nc2N)n(C[C@@H]2CCCO2)c2cc(OCC(=O)N3CCN(C(=O)OCc4ccccc4)CC3)ccc21 [Example 1.14]
pIC50 [2, 3]: 8.15

C[n+]1c(CNC(=O)c2nc(Cl)c(N)nc2N)n(C[C@@H]2CCCO2)c2cc(OCCO)ccc21.O=C([O-])C(F)(F)F [Example 1.04]
Papp A→B at 90 min, 10 μM [1]: 0.3 ×10⁻⁶ cm/s
Papp B→A at 90 min, 10 μM [1]: 0.2 ×10⁻⁶ cm/s
pIC50 [2, 3]: 8.52

CC[n+]1c(CNC(=O)c2nc(Cl)c(N)nc2N)n(CCCCP(=O)([O-])O)c2cc(O)ccc21 [Example 7.01]
pIC50 [2, 3]: 7.20

CC[n+]1c(CNC(=O)c2nc(Cl)c(N)nc2N)n(CCOCCN2CCCCC2=O)c2cc(OCP(C)(C)=O)ccc21 [Example 1.16]
pIC50 [2, 3]: 7.06

CC[n+]1c(CNC(=O)c2nc(Cl)c(N)nc2N)n(CCOCCn2cc(C(=O)N(C)C)ccc2=O)c2cc(OCCO)ccc21 [Example 1.11]
pIC50 [2, 3]: 7.59

CCn1c(CNC(=O)c2nc(Cl)c(N)nc2N)[n+](Cc2cccnc2)c2ccc(OCC(=O)N(C)C)cc21.O=C([O-])C(F)(F)F [Example 1.02]
Papp A→B at 90 min, 10 μM [1]: 0.4 ×10⁻⁶ cm/s
Papp B→A at 90 min, 10 μM [1]: 0.2 ×10⁻⁶ cm/s
pIC50 [2, 3]: 8.22

CCNC(=O)N1CCC(n2c(CNC(=O)c3nc(Cl)c(N)nc3N)[n+](CC)c3ccc(OCC(=O)NC4CCNCC4)cc32)CC1 [Example 3.02]
pIC50 [2, 3]: 8.52

CC[n+]1c(CNC(=O)c2nc(Cl)c(N)nc2N)n(C[C@@H]2CCCO2)c2cc(OCC(=O)N3CC[S+]([O-])CC3)ccc21.O=C([O-])C(F)(F)F [Example 1.01]
Papp A→B at 90 min, 10 μM [1]: 0.5 ×10⁻⁶ cm/s
Papp B→A at 90 min, 10 μM [1]: 0.08 ×10⁻⁶ cm/s
pIC50 [2, 3]: 9.00

CCN(Cc1ncccc1[O-])C(=O)COc1ccc2c(c1)n(CC)c(CNC(=O)c1nc(Cl)c(N)nc1N)[n+]2CC1CCOCC1 [Example 1.17]
pIC50 [2, 3]: 9.00

CCn1c(CNC(=O)c2nc(Cl)c(N)nc2N)[n+](CC2CCOCC2)c2ccc(OCC(=O)NCc3nc(C)ccc3[O-])cc21 [Example 1.07]
pIC50 [2, 3]: 8.70

CCn1c(CNC(=O)c2nc(Cl)c(N)nc2N)[n+](CC2CCOCC2)c2ccc(OCC(=O)N(Cc3nc(C)ccc3[O-])C[C@H](C)O)cc21 [Example 1.12]
pIC50 [2, 3]: 8.70

CCn1c(CNC(=O)c2nc(Cl)c(N)nc2N)[n+](CC2CCOCC2)c2ccc(OCC(=O)N(C)Cc3nc(C)ccc3[O-])cc21 [Example 1.06]
pIC50 [2, 3]: 9.00

CCn1c(CNC(=O)c2nc(Cl)c(N)nc2N)[n+](CC2CCOCC2)c2ccc(OCC(=O)N(Cc3ccccc3)Cc3nc(C)ccc3[O-])cc21 [Example 1.05]
pIC50 [2, 3]: 8.30

Nc1nc(N)c(C(=O)NCc2n(C[C@@H]3CCCO3)c3cc(OCCO)ccc3[n+]2CCOCCO)nc1Cl [Example 1.09]
pIC50 [2, 3]: 8.52

CC[n+]1c(CNC(=O)c2nc(Cl)c(N)nc2N)n(CC2CCOCC2)c2cc(OCCC[n+]3cc([O-])cc(OC)c3)c(Cl)cc21.O=C([O-])C(F)(F)F [Example 1.13]
Papp A→B at 90 min, 10 μM [1]: 0.4 ×10⁻⁶ cm/s
Papp B→A at 90 min, 10 μM [1]: 0.1 ×10⁻⁶ cm/s
pIC50 [2, 3]: 8.70

CCOP(=O)([O-])CCCCn1c(CNC(=O)c2nc(Br)c(N)nc2N)[n+](CC)c2ccc(O)cc21 [Example 6.01]
pIC50 [2]: 7.60

CC[n+]1c(CNC(=O)c2nc(Cl)c(N)nc2N)n(C[C@@H]2CCCO2)c2cc(OCC(=O)NCc3ccccn3)ccc21.O=C([O-])C(F)(F)F [Example 2.01]
Papp A→B at 90 min, 10 μM [1]: 0.03 ×10⁻⁶ cm/s
Papp B→A at 90 min, 10 μM [1]: 0.05 ×10⁻⁶ cm/s
pIC50 [2, 3]: 9.00
